Measured values taken from patent US8629273B2, “Diazinylpyrazolyl compounds” (Bayer Intellectual Property GmbH, priority 2009, dated 2014).
One block for each molecule: values may come before it.

Tests used:
[1] = system: larvae of the mustard beetle (Phaedon cochleariae); assay: Phaedon test (PHAECO spray treatment); format: in vivo; details: 100 g/ha, after 7 days
In short: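 Chinese cabbage leaf discs were sprayed with compound formulated in acetone/dimethyl formamide plus alkylaryl polyglycol ether emulsifier, diluted in emulsifier-containing water to the desired concentration. After drying, discs were infested with mustard beetle larvae. Mortality (%) was scored after 7 days, where 100% means all larvae killed.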

[2] = logP by HPLC on reversed-phase columns (C 18), EU Guideline 79/831 Annex V.A8; format: physicochemical
[3] = system: green peach affid (Myzus persicae); assay: Myzus test (MYZUPE spray treatment); format: in vivo; details: 100 g/ha, after 6 days
Description: Solvents: 78 parts by weight of acetone
• 1.5 parts by weight of dimethyl formamide Emulsifier: 0.5 part by weight of alkylaryl polyglycol ether
To produce a suitable preparation of active compound, 1 part by weight of active compound is mixed with the stated amounts of solvent and emulsifier, and the concentrate is diluted with emulsifier-containing water to the desired concentration.
Discs of Chinese cabbage leaves (Brassica pekinensis) infested by all stages of the green peach affid (Myzus persicae) are sprayed with an active compound preparation of the desired concentration.
After 6 days, the activity in % is determined. 100% means that all affids have been killed; 0% means that none of the affids have been killed.

[4] = system: caterpillars of the army worm (Spodoptera frugiperda); assay: Spodoptera frugiperda test (SPODFR spray treatment); format: in vivo; details: 100 g/ha, after 7 days
In short: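 Maize leaf discs sprayed with compound in acetone/DMF with alkylaryl polyglycol ether emulsifier, diluted in emulsifier-containing water to the test concentration. Once dry, discs were infested with army worm caterpillars. Mortality scored after 7 days as % activity (100% = all caterpillars killed).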

Lucilia cuprina larvae = assay: Lucilia cuprina test (LUCICU); format: in vivo; details: 100 ppm, treated horse meat, after 2 days
In short: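 Horse meat treated with compound diluted in water from DMSO concentrate, then populated with larvae. Mortality scored after 2 days as percent kill, 100% meaning all larvae dead.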

adult Musca domestica = assay: Musca domestica test (MUSCDO); format: in vivo; details: 100 ppm, treated sponge
In short: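 Compound taken up in DMSO and diluted with water to test concentration, applied to a sponge in vessels then stocked with adult houseflies. Kill % scored after the set period; 100% = all flies dead, 0% = none.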

Boophilus microplus = Boophilus microplus test (BOOPMI injection); format: in vivo; details: 20 μg/animal, injected into the abdomen, after 7 days
In short: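 Compound dissolved in DMSO, diluted with water and injected into the tick abdomen; ticks kept in a climatized room. Fertile egg deposition assessed after 7 days; 100% means no tick laid fertile eggs.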

[5] = system: greenhouse red spider mite (Tetranychus urticae); assay: Tetranychus test, OP resistant (TETRUR spray treatment); format: in vivo; details: 100 g/ha, after 6 days
Description: Solvents: 78.0 parts by weight of acetone • • 1.5 parts by weight of dimethyl formamide Emulsifier: 0.5 part by weight of alkylaryl polyglycol ether To produce a suitable preparation of active compound, 1 part by weight of active compound is mixed with the stated amounts of solvent and emulsifier, and the concentrate is diluted with emulsifier-containing water to the desired concentration. Discs of bean leaves (Phaseolus vulgaris) which are infested by all stages of the greenhouse red spider mite (Tetranychus urticae) are sprayed with an active compound preparation of the desired concentration. After 6 days, the activity in % is determined. 100% means that all spider mites have been killed; 0% means that none of the spider mites has been killed. The test was carried out and evaluated as described in Example B.7.

Ctenocephalides felis = Ctenocephalides felis oral (CTECFE); format: in vivo; details: 100 ppm in citrated cattle blood, after 2 days
In short: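 Twenty unfed adult fleas fed through parafilm on citrated cattle blood containing compound, diluted from a DMSO concentrate (10 mg per 0.5 ml). Kill % scored after 2 days (100% = all dead, 0% = none).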

[6] = system: Boophilus microplus strain Parkhurst (SP-resistant); assay: Boophilus microplus test (DIP); format: in vivo; details: 100 ppm
Description: Test animals: adult fed females of the Boophilus microplus strain Parkhurst (SP-resistant)
Solvent: Dimethyl sulphoxide
10 mg of active compound are dissolved in 0.5 ml of dimethyl sulphoxide. To produce a suitable formulation, the active compound solution is diluted with water to the particular desired concentration. This active compound preparation is pipetted into tubes. 8-10 ticks are transferred into a further tube provided with holes. The tube is dipped into the active compound preparation, with all ticks being wetted completely. After the liquid has run off, the ticks are transferred to filter discs in plastic dishes and kept in a climatized room. After the desired period of time, the activity is checked for deposition of fertile eggs. Eggs whose fertility is not visible from the outside are kept in glass tubes in a climatized cupboard under the larvae have hatched. An activity of 100% means that no tick has laid fertile eggs.

[7] = ** LC-MS in the neutral range, pH 7.8, 0.001 molar aqueous ammonium bicarbonate and acetonitrile

logP ([2]; * LC-MS in the acidic range, pH 2.7, 0.1% aqueous formic acid and acetonitrile): 4.61*
logP [2, 7]: 4.58**;
Structure (SMILES): CCOC=Nc1c(-c2cc(Cl)cc(C(F)(F)F)c2)c(C(F)(F)F)nn1-c1ncccn1 [Example 1-11]
activity (beetle larvae killed) [1]: 100%
activity (affids killed) [3]: 90%
activity (caterpillars killed) [4]: 100%
kill (Lucilia cuprina larvae): 100%
kill (adult Musca domestica): 80%
activity (no deposition of fertile eggs) (Boophilus microplus): 100%

Structure (SMILES): CCCCOC=Nc1c(-c2cc(Cl)cc(C(F)(F)F)c2)c(C(F)(F)F)nn1-c1ncccn1 [Example 1-15]
activity (beetle larvae killed) [1]: 100%
logP [2, 7]: 5.24**
activity (spider mites killed) [5]: 100%
activity (affids killed) [3]: 80%
kill (Ctenocephalides felis): 100%
activity (caterpillars killed) [4]: 100%
kill (Lucilia cuprina larvae): 100%
kill (adult Musca domestica): 80%
activity (no deposition of fertile eggs) (Boophilus microplus): 100%

Structure (SMILES): CCOC=Nc1c(-c2cc(Cl)cc(C(F)(F)F)c2)c(C(F)(F)C(F)F)nn1-c1ncccn1 [Example 1-34]
activity (beetle larvae killed) [1]: 100%
logP [2, 7]: 4.43**
activity (spider mites killed) [5]: 100%
activity (affids killed) [3]: 90%
kill (Ctenocephalides felis): 80%
activity (caterpillars killed) [4]: 100%
kill (Lucilia cuprina larvae): 100%
kill (adult Musca domestica): 100%
activity (no deposition of fertile eggs) (Boophilus microplus): 100%

Structure (SMILES): CCOC=Nc1c(-c2cc(Cl)cc(C(F)(F)F)c2)c(C(F)(F)C(F)(F)F)nn1-c1ncccn1 [Example 1-43]
activity (beetle larvae killed) [1]: 100%
logP [2, 7]: 5.02**
activity (spider mites killed) [5]: 100%
activity (affids killed) [3]: 100%
activity (caterpillars killed) [4]: 100%

Structure (SMILES): CCOC=Nc1c(-c2cc(Cl)c3c(c2)OCO3)c(C(F)(F)F)nn1-c1nccnc1OC [Example 2-18]
activity (beetle larvae killed) [1]: 100%
logP [2, 7]: 4.03**
activity (spider mites killed) [5]: 100%
activity (affids killed) [3]: 100%
kill (Ctenocephalides felis): 100%
activity (caterpillars killed) [4]: 100%
kill (Lucilia cuprina larvae): 100%
activity (no deposition of fertile eggs) (Boophilus microplus): 100%
activity (no deposition of fertile eggs) [6]: 100%
